Experimental data from BindingDB's records for doi:10.1016/j.bmcl.2010.09.009 (Merck Research Laboratories, 2010).

Assay: Inhibition of PAR1-mediated aggregation of TRAP-stimulated human platelet

- IC50: 180 nM
Compound: CCOC(=O)N[C@@H]1CC[C@@H]2[C@@H](C1)C[C@H]1C(=O)O[C@H](C)[C@H]1[C@H]2C=Cc1ccc(-c2ccccn2)cn1 [ethyl(1R,3aR,4aR,6R,8aR,9S,9aS)-9-((E)-2-(2,3'-bipyridin-6'-yl)vinyl)-1-methyl-3-oxododecahydronaphtho[2,3-c]furan-6-ylcarbamate]
